Legend:
[1] = in vivo; conditions: rat, plasma, po
[2] = Oral bioavailability in rat; format: ADME, organism-based; conditions: in vivo
[3] = in vivo; conditions: rat, plasma, po, 10 mg/kg
[4] = in vivo; conditions: rat, plasma, iv
[5] = in vivo; conditions: rat, plasma, po; remark: listed apart in the source

Compound | AUC [1] [ng·h/mL] | bioavailability [2] [%] | Cmax [3] [nM] | half-life [4] [min] | Tmax [5] [min] | F [2] [%]
COc1ccc(CN(C)C(=O)NC(C(=O)N[C@@H](Cc2ccccc2)[C@@H](O)C[C@H](Cc2ccccc2)NC(=O)OCc2cccnc2)C(C)C)nc1 (stereo not given in full) | 820 | 17 | 2170 | 36 | 9 | –
CC(C)C(NC(=O)N(C)Cc1cscn1)C(=O)N[C@@H](Cc1ccccc1)C[C@H](O)[C@H](Cc1ccccc1)NC(=O)OCc1cccnc1 (stereo not given in full) | 290 | 5.2 | 640 | 40.2 | 6 | –
CC(C)C(NC(=O)N(C)Cc1cscn1)C(=O)N[C@@H](Cc1ccccc1)[C@@H](O)C[C@H](Cc1ccccc1)NC(=O)OCc1cccnc1 (stereo not given in full) | 1660 | 35 | 3130 | 84 | 22.2 | –
Cc1ncc(CN(C)C(=O)NC(C(=O)N[C@@H](Cc2ccccc2)C[C@H](O)[C@H](Cc2ccccc2)NC(=O)OCc2cccnc2)C(C)C)nc1C (stereo not given in full) | 330 | 6.4 | 1130 | 18 | 15 | –
CCc1nc(CN(C)C(=O)NC(C(=O)N[C@@H](Cc2ccccc2)C[C@H](O)[C@H](Cc2ccccc2)NC(=O)OCc2cncs2)C(C)C)cs1 (stereo not given in full) | 14200 | 70 | 6170 | 48 | 72 | –
COCc1nc(CN(C)C(=O)NC(C(=O)N[C@@H](Cc2ccccc2)C[C@H](O)[C@H](Cc2ccccc2)NC(=O)OCc2cccnc2)C(C)C)cs1 (stereo not given in full) | 490 | 8 | 1350 | 23.4 | 12 | –
CC(C)C(NC(=O)N(C)Cc1csc(C(C)(C)C)n1)C(=O)N[C@@H](Cc1ccccc1)[C@@H](O)C[C@H](Cc1ccccc1)NC(=O)OCc1cccnc1 (stereo not given in full) | 510 | 9.3 | 830 | 21.6 | 19.8 | –
CCc1nc(COC(=O)NC(C(=O)N[C@@H](Cc2ccccc2)C[C@H](O)[C@H](Cc2ccccc2)NC(=O)OCc2cccnc2)C(C)C)cs1 (stereo not given in full) | 330 | 7.4 | 1300 | 45 | 9 | –
COCc1nc(COC(=O)NC(C(=O)N[C@@H](Cc2ccccc2)[C@@H](O)C[C@H](Cc2ccccc2)NC(=O)OCc2cccnc2)C(C)C)cs1 (stereo not given in full) | 630 | 10 | 1790 | 16.2 | 13.8 | –
CCc1ncc(COC(=O)NC(C(=O)N[C@@H](Cc2ccccc2)[C@@H](O)C[C@H](Cc2ccccc2)NC(=O)OCc2cccnc2)C(C)C)s1 (stereo not given in full) | 490 | 9.2 | 340 | 73.8 | 16.8 | –
CC(C)c1cccc(COC(=O)NC(C(=O)N[C@@H](Cc2ccccc2)[C@@H](O)C[C@H](Cc2ccccc2)NC(=O)OCc2cccnc2)C(C)C)n1 (stereo not given in full) | 310 | 8.3 | 310 | 78.6 | 15 | –
COc1ccc(CN(C)C(=O)NC(C(=O)N[C@@H](Cc2ccccc2)C[C@H](O)[C@H](Cc2ccccc2)NC(=O)OCc2cccnc2)C(C)C)nc1 (stereo not given in full) | 290 | 5.7 | 1050 | 34.2 | 6 | –
CC(C)c1nc(CN(C)C(=O)NC(C(=O)N[C@@H](Cc2ccccc2)C[C@H](O)[C@H](Cc2ccccc2)NC(=O)OCc2ccno2)C(C)C)cs1 (stereo not given in full) | 270 | 7.7 | 370 | 35.4 | 12 | –
COc1cncc(COC(=O)NC(C(=O)N[C@@H](Cc2ccccc2)[C@@H](O)C[C@H](Cc2ccccc2)NC(=O)OCc2cccnc2)C(C)C)c1 (stereo not given in full) | 70 | 1.5 | 300 | 71.4 | 6 | –
COc1ccc(COC(=O)NC(C(=O)N[C@@H](Cc2ccccc2)[C@@H](O)C[C@H](Cc2ccccc2)NC(=O)OCc2cccnc2)C(C)C)cn1 (stereo not given in full) | 160 | 3.3 | 560 | 25.8 | 9 | –
CC(C)C(NC(=O)OCc1cnccn1)C(=O)N[C@@H](Cc1ccccc1)C[C@H](O)[C@H](Cc1ccccc1)NC(=O)OCc1cccnc1 (stereo not given in full) | 100 | 2.4 | 500 | 12 | 12 | –
CC(C)C(NC(=O)N(C)Cc1ccccn1)C(=O)N[C@@H](Cc1ccccc1)C[C@H](O)[C@H](Cc1ccccc1)NC(=O)OCc1cccnc1 (stereo not given in full) | 1220 | 22 | 2180 | 73.2 | 9 | –
Cc1nc(CN(C)C(=O)NC(C(=O)N[C@@H](Cc2ccccc2)C[C@H](O)[C@H](Cc2ccccc2)NC(=O)OCc2cccnc2)C(C)C)cs1 (stereo not given in full) | 1060 | 26 | 2100 | 43.2 | 9 | –
Cc1cccc(COC(=O)NC(C(=O)N[C@@H](Cc2ccccc2)C[C@H](O)[C@H](Cc2ccccc2)NC(=O)OCc2cccnc2)C(C)C)n1 (stereo not given in full) | 900 | 16 | 1740 | 117 | 6 | –

Compound | AUC [1] [ng·h/mL] | bioavailability [2] [%] | Cmax [3] [nM] | half-life [4] [min] | Tmax [5] [min] | F [2] [%]
Cc1cnc(COC(=O)NC(C(=O)N[C@@H](Cc2ccccc2)[C@@H](O)C[C@H](Cc2ccccc2)NC(=O)OCc2cccnc2)C(C)C)cn1 (stereo not given in full) | 70 | 2.8 | 350 | 10.8 | 12 | –
CCc1nc(CN(C)C(=O)NC(C(=O)N[C@@H](Cc2ccccc2)C[C@H](O)[C@H](Cc2ccccc2)NC(=O)OCc2cncs2)C(C)C)co1 (stereo not given in full) | 8910 | 57 | 8010 | 120 | 19.8 | –
CC(NC(=O)N(C)Cc1coc(C(C)C)n1)C(=O)N[C@@H](Cc1ccccc1)C[C@H](O)[C@H](Cc1ccccc1)NC(=O)OCc1cncs1 (stereo not given in full) | 2860 | 23 | 3600 | 240 | 15 | –
Cc1cncc(CN(C)C(=O)NC(C(=O)N[C@@H](Cc2ccccc2)C[C@H](O)[C@H](Cc2ccccc2)NC(=O)OCc2cccnc2)C(C)C)c1 (stereo not given in full) | 310 | 9.7 | 690 | 31.8 | 6 | –
CC(C)C(NC(=O)N(C)Cc1ccccn1)C(=O)N[C@@H](Cc1ccccc1)[C@@H](O)C[C@H](Cc1ccccc1)NC(=O)OCc1ccoc1 (stereo not given in full) | 500 | 9.3 | 1020 | 64.2 | 24 | –
CC(C)C(NC(=O)OCc1nccs1)C(=O)N[C@@H](Cc1ccccc1)C[C@H](O)[C@H](Cc1ccccc1)NC(=O)OCc1cccnc1 (stereo not given in full) | 570 | 8.5 | 2530 | 39.6 | 9 | –
CCc1cccc(COC(=O)NC(C(=O)N[C@@H](Cc2ccccc2)[C@@H](O)C[C@H](Cc2ccccc2)NC(=O)OCc2cccnc2)C(C)C)n1 (stereo not given in full) | 810 | 16 | 1260 | 44.4 | 15 | –
COCc1ncc(COC(=O)NC(C(=O)N[C@@H](Cc2ccccc2)[C@@H](O)C[C@H](Cc2ccccc2)NC(=O)OCc2cccnc2)C(C)C)s1 (stereo not given in full) | 420 | 11 | 380 | 22.2 | 9 | –
CC(C)C(NC(=O)N(C)Cc1csc(C2CC2)n1)C(=O)N[C@@H](Cc1ccccc1)[C@@H](O)C[C@H](Cc1ccccc1)NC(=O)OCc1cncs1 (stereo not given in full) | 10700 | – | 3980 | 31.8 | 138 | 175
CC(C)c1nc(CN(C)C(=O)NC(C(=O)N[C@@H](Cc2ccccc2)C[C@H](O)[C@H](Cc2ccccc2)NC(=O)OCc2cncs2)C(C)C)cs1 (stereo not given in full) | 7750 | 78 | 2620 | 72 | 120 | –
COc1cncc(CN(C)C(=O)NC(C(=O)N[C@@H](Cc2ccccc2)C[C@H](O)[C@H](Cc2ccccc2)NC(=O)OCc2cccnc2)C(C)C)c1 (stereo not given in full) | 50 | 0.4 | 180 | 16.8 | 9 | –
COc1ccc(COC(=O)NC(C(=O)N[C@@H](Cc2ccccc2)C[C@H](O)[C@H](Cc2ccccc2)NC(=O)OCc2cccnc2)C(C)C)nc1 (stereo not given in full) | 50 | 1.3 | 290 | 15 | 6 | –
CC(C)c1nc(CN(C)C(=O)NCCC(=O)N[C@@H](Cc2ccccc2)C[C@H](O)[C@H](Cc2ccccc2)NC(=O)OCc2cncs2)cs1 | 190 | 7.1 | 630 | 57.6 | 6 | –
Cc1cccc(COC(=O)NC(C(=O)N[C@@H](Cc2ccccc2)[C@@H](O)C[C@H](Cc2ccccc2)NC(=O)OCc2cccnc2)C(C)C)n1 (stereo not given in full) | 610 | 7.5 | 1150 | 44.4 | 19.8 | –
CC(C)C(NC(=O)N(C)Cc1csc(C2CC2)n1)C(=O)N[C@@H](Cc1ccccc1)C[C@H](O)[C@H](Cc1ccccc1)NC(=O)OCc1cncs1 (stereo not given in full) | 21900 | 58 | 6460 | 66 | 130 | –
CC(C)c1ncc(COC(=O)NC(C(=O)N[C@@H](Cc2ccccc2)C[C@H](O)[C@H](Cc2ccccc2)NC(=O)OCc2cccnc2)C(C)C)s1 (stereo not given in full) | 20 | 0.7 | 150 | 27.6 | 6 | –
Cc1ncsc1CCOC(=O)NC(C(=O)N[C@@H](Cc1ccccc1)[C@@H](O)C[C@H](Cc1ccccc1)NC(=O)OCc1cccnc1)C(C)C (stereo not given in full) | 360 | 9.2 | 410 | 27 | 27 | –
CC(C)c1ncc(COC(=O)NC(C(=O)N[C@@H](Cc2ccccc2)[C@@H](O)C[C@H](Cc2ccccc2)NC(=O)OCc2cccnc2)C(C)C)s1 (stereo not given in full) | 30 | 0.8 | 100 | 37.2 | 12 | –
